Here are results for 31 compounds from patent US12509454B2, “Thiadiazolyl derivatives” (IDEAYA Biosciences, Inc., priority 2019, dated 2025).

This assay deals with Pol theta (1-899) (Homo sapiens (Human), UniProt O75417). Nature of the assay: Pol theta ATPase activity, NADH oxidation-coupled enzymatic assay. In kind it is biochemical. The following applies: Pol theta (1-899) 10 nM, ATP, dT50 ssDNA, absorbance 340 nm, 10-point dilution series; read-out: ATPase NADH coupling:Standard Screening:hPolQ IC50. In outline: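 Pol theta (1-899), 10 nM, preincubated 15 min at RT with 10-point compound series in Tris pH 7.80/KCl/MgCl2 buffer, then given 100 μM ATP plus 300 nM dT50 ssDNA with PK/LDH-coupled NADH oxidation. A340 followed for 30 min; rate slopes fitted with a four-parameter model for IC50.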

SMILES strings stand for the structures. Bounds are passed on as bounds.

Pol theta (1-899), sequence (O75417 1-899): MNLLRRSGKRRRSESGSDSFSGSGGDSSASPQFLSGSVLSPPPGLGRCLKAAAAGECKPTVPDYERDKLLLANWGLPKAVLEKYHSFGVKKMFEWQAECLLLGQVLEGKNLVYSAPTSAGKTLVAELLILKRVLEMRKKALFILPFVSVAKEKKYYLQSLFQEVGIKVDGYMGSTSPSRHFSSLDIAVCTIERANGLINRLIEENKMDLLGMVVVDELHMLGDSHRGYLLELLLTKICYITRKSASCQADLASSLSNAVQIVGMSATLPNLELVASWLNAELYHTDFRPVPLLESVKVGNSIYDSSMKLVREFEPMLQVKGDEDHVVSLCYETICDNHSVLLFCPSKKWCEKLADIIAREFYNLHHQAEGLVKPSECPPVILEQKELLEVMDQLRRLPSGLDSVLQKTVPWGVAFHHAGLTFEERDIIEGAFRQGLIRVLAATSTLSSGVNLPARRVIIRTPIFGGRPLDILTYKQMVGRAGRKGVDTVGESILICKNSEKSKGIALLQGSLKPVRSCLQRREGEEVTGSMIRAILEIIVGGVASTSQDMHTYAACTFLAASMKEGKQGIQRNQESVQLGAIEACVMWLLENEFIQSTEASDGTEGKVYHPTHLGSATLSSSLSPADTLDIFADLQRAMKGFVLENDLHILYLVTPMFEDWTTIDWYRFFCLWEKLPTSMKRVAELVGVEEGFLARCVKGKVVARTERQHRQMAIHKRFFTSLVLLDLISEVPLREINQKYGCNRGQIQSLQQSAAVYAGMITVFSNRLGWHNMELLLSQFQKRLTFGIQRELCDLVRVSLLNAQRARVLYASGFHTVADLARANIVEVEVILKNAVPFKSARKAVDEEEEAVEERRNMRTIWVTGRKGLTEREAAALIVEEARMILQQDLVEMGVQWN

In general, IC50 refers to the point on the concentration scale where inhibition reaches its midpoint. Regarding `COc1cccc(F)c1-c1cc(C#N)ncc1C(=O)Nc1nnc(OCc2ccc(Cl)cc2)s1` [Example 185, N-(5-((4-chlorobenzyl)oxy)-1,3,4-thiadiazol-2-yl)-6-cyano-4-(2-fluoro-6-methoxyphenyl)nicotinamide], the IC50 is no more than 0.2 µM.

On to `COc1cccc(F)c1-c1cc(C#N)ncc1C(=O)Nc1nnc(OCc2ccc(Cl)cn2)s1` [Example 186, N-(5-((5-chloropyridin-2-yl)methoxy)-1,3,4-thiadiazol-2-yl)-6-cyano-4-(2-fluoro-6-methoxyphenyl)nicotinamide], for which the concentration for half-maximal inhibition (IC50) was no more than 0.2 µM.

In the case of `C[C@H]1COC[C@H](C)N1c1cnccc1C(=O)Nc1nnc(OCc2ccc(Cl)cn2)s1` [Example 187, N-(5-((5-chloropyridin-2-yl)methoxy)-1,3,4-thiadiazol-2-yl)-3-((3S,5S)-3,5-dimethylmorpholino)isonicotinamide], the concentration for half-maximal inhibition (IC50) is no more than 0.2 µM.

As to `C[C@@H]1COC[C@@H](C)N1c1cnccc1C(=O)Nc1nnc(OCc2ccc(Cl)cn2)s1` [Example 188, N-(5-((5-chloropyridin-2-yl)methoxy)-1,3,4-thiadiazol-2-yl)-3-((3R,5R)-3,5-dimethylmorpholino)isonicotinamide], the IC50 was no more than 0.2 µM.

With `Cc1cc(-c2c(F)cccc2OC(F)F)c(C(=O)Nc2nnc(OCc3ccc(Cl)cc3)s2)cn1` [Example 189, N-(5-((4-chlorobenzyl)oxy)-1,3,4-thiadiazol-2-yl)-4-(2-(difluoromethoxy)-6-fluorophenyl)-6-methylnicotinamide], the IC50 was no more than 0.2 µM.

`Cc1cc(-c2c(F)cccc2OC(F)F)c(C(=O)Nc2nnc(OCc3ccc(Cl)cn3)s2)cn1` [Example 190, N-(5-((5-chloropyridin-2-yl)methoxy)-1,3,4-thiadiazol-2-yl)-4-(2-(difluoromethoxy)-6-fluorophenyl)-6-methylnicotinamide]: the half-maximal inhibitory concentration (IC50) is no more than 0.2 µM.

On to `COc1ccccc1-c1cnc(C)cc1C(=O)Nc1nnc(OCc2ccc(Cl)cn2)s1` [Example 191, N-[5-[(5-chloropyridin-2-yl)methoxy]-1,3,4-thiadiazol-2-yl]-5-(2-methoxyphenyl)-2-methylpyridine-4-carboxamide], for which the IC50 is 0.2 to 0.5 µM.

With `N#Cc1cc(-c2c(F)cccc2OC(F)F)c(C(=O)Nc2nnc(OCc3ccc(Cl)cc3)s2)cn1` [Example 192, N-(5-((4-chlorobenzyl)oxy)-1,3,4-thiadiazol-2-yl)-6-cyano-4-(2-(difluoromethoxy)-6-fluorophenyl)nicotinamide], the concentration for half-maximal inhibition (IC50) is no more than 0.2 µM.

As to `COc1cnccc1-c1cc(C)ncc1C(=O)Nc1nnc(OCc2ccc(Cl)cn2)s1` [Example 194, N-(5-((5-chloropyridin-2-yl)methoxy)-1,3,4-thiadiazol-2-yl)-3′-methoxy-6-methyl-[4,4′-bipyridine]-3-carboxamide], the IC50 is no more than 0.2 µM.

Take `COc1c(CO)cccc1-c1cc(C)ncc1C(=O)Nc1nnc(OCc2ccc(Cl)cn2)s1` [Example 195, N-[5-[(5-chloropyridin-2-yl)methoxy]-1,3,4-thiadiazol-2-yl]-4-[3-(hydroxymethyl)-2-methoxyphenyl]-6-methylpyridine-3-carboxamide]: the IC50 was no more than 0.2 µM.

For `Cc1cc(-c2c(C)n[nH]c2C)c(C(=O)Nc2nnc(OCc3ccc(Cl)cn3)s2)cn1` [Example 196, N-(5-((5-chloropyridin-2-yl)methoxy)-1,3,4-thiadiazol-2-yl)-4-(3,5-dimethyl-1H-pyrazol-4-yl)-6methylnicotinamide], the IC50 is no more than 0.2 µM.

Take `COc1ccccc1-c1cc(C)ncc1C(=O)Nc1nnc(OCCc2ccc(Cl)cn2)s1` [Example 197, N-(5-(2-(5-chloropyridin-2-yl)ethoxy)-1,3,4-thiadiazol-2-yl)-4-(2-methoxyphenyl)-6-methylnicotinamide]: the concentration for half-maximal inhibition (IC50) lay within 0.2 to 0.5 µM.

Regarding `Cc1cc(-c2cccc3c2OCCN3)c(C(=O)Nc2nnc(OCc3ccc(Cl)cn3)s2)cn1` [Example 198, N-(5-((5-chloropyridin-2-yl)methoxy)-1,3,4-thiadiazol-2-yl)-4-(3,4-dihydro-2H-benzo[b][1,4]oxazin-8-yl)-6-methylnicotinamide], the IC50 was no more than 0.2 µM.

Regarding `COc1ccccc1-c1cc(C)ncc1C(=O)Nc1nnc(OCc2cc(F)ccn2)s1` [Example 199, N-(5-((4-fluoropyridin-2-yl)methoxy)-1,3,4-thiadiazol-2-yl)-4-(2-methoxyphenyl)-6-methylnicotinamide], the IC50 lay in the range of 0.2 to 0.5 µM.

As to `COc1ccc(CO)cc1-c1cc(C)ncc1C(=O)Nc1nnc(OCc2ccc(Cl)cn2)s1` [Example 200, N-(5-((5-chloropyridin-2-yl)methoxy)-1,3,4-thiadiazol-2-yl)-4-(5-(hydroxymethyl)-2-methoxyphenyl)-6-methylnicotinamide], the 50% inhibitory concentration (IC50) is no more than 0.2 µM.

`COc1ccccc1-c1cc(C)ncc1C(=O)Nc1nnc(O[C@H](C)c2ccc(Cl)cc2)s1` [Example 201, N-[5-[(1R)-1-(4-chlorophenyl)ethoxy]-1,3,4-thiadiazol-2-yl]-4-(2-methoxyphenyl)-6-methylpyridine-3-carboxamide]: the IC50 was in the range of 0.5 to 1 µM.

Regarding `COc1ccccc1-c1cc(C)ncc1C(=O)Nc1nnc(O[C@@H](C)c2ccc(Cl)cc2)s1` [Example 202, N-[5-[(1S)-1-(4-chlorophenyl)ethoxy]-1,3,4-thiadiazol-2-yl]-4-(2-methoxyphenyl)-6-methylpyridine-3-carboxamide], the 50% inhibitory concentration (IC50) was no more than 0.2 µM.

For the compound `Cc1cc(-c2ccccc2CO)c(C(=O)Nc2nnc(OCc3ccc(Cl)cn3)s2)cn1` [Example 203, N-[5-[(5-chloropyridin-2-yl)methoxy]-1,3,4-thiadiazol-2-yl]-4-[2-(hydroxymethyl)phenyl]-6-methylpyridine-3-carboxamide], the concentration for half-maximal inhibition (IC50) is no more than 0.2 µM.

For `COc1ccccc1-c1cc(CN)ncc1C(=O)Nc1nnc(OCc2ccc(Cl)cn2)s1` [Example 204, 6-(aminomethyl)-N-[5-[(5-chloropyridin-2-yl)methoxy]-1,3,4-thiadiazol-2-yl]-4-(2-methoxyphenyl)pyridine-3-carboxamide], the IC50 was 1 to 10 µM.

With `COc1ccccc1-c1cc(C)ncc1C(=O)Nc1nnc(OCc2ccc(C)cn2)s1` [Example 205, 4-(2-methoxyphenyl)-6-methyl-N-(5-((5-methylpyridin-2-yl)methoxy)-1,3,4-thiadiazol-2-yl)nicotinamide], the IC50 is no more than 0.2 µM.

For `COc1cccc(F)c1-c1cc(CO)ncc1C(=O)Nc1nnc(OCc2ccc(Cl)cn2)s1` [Example 206, N-[5-[(5-chloropyridin-2-yl)methoxy]-1,3,4-thiadiazol-2-yl]-4-(2-fluoro-6-methoxyphenyl)-6-(hydroxymethyl)pyridine-3-carboxamide], the IC50 was no more than 0.2 µM.

For the compound `COc1ccccc1-c1cc(C(C)(C)O)ncc1C(=O)Nc1nnc(OCc2ccc(Cl)cn2)s1` [Example 207, N-(5-((5-chloropyridin-2-yl)methoxy)-1,3,4-thiadiazol-2-yl)-6-(2-hydroxypropan-2-yl)-4-(2-methoxyphenyl)nicotinamide], the IC50 lay in the range of 1 to 10 µM.

As for `Cc1cc(-c2cccc3c2OC(F)(F)O3)c(C(=O)Nc2nnc(OCc3ccc(Cl)cn3)s2)cn1` [Example 208, N-(5-((5-chloropyridin-2-yl)methoxy)-1,3,4-thiadiazol-2-yl)-4-(2,2-difluorobenzo[d][1,3]dioxol-4-yl)-6-methylnicotinamide], the IC50 was no more than 0.2 µM.

As for `COc1ccccc1-c1cncnc1C(=O)Nc1nnc(OCc2ccc(Cl)cn2)s1` [Example 209, N-(5-((5-chloropyridin-2-yl)methoxy)-1,3,4-thiadiazol-2-yl)-5-(2-methoxyphenyl)pyrimidine-4-carboxamide], the concentration for half-maximal inhibition (IC50) was no more than 0.2 µM.

With `COc1ccccc1-c1cc(C)ncc1C(=O)Nc1nnc(OCc2ncccc2F)s1` [Example 210, N-[5-[(3-fluoropyridin-2-yl)methoxy]-1,3,4-thiadiazol-2-yl]-4-(2-methoxyphenyl)-6-methylpyridine-3-carboxamide], the IC50 is no more than 0.2 µM.

As to `COc1ccccc1-c1cc(C)ncc1C(=O)Nc1nnc(OCc2cccc(F)n2)s1` [Example 211, N-[5-[(6-fluoropyridin-2-yl)methoxy]-1,3,4-thiadiazol-2-yl]-4-(2-methoxyphenyl)-6-methylpyridine-3-carboxamide], the half-maximal inhibitory concentration (IC50) was no more than 0.2 µM.

As for `COc1ccccc1-c1cc(C)ncc1C(=O)Nc1nnc(OCc2cnc(Cl)cn2)s1` [Example 212, N-[5-[(5-chloropyrazin-2-yl)methoxy]-1,3,4-thiadiazol-2-yl]-4-(2-methoxyphenyl)-6-methylpyridine-3-carboxamide], the IC50 was no more than 0.2 µM.

Take `COc1ccccc1-c1cc(C)ncc1C(=O)Nc1nnc(OCc2ccc(Cl)c3[nH]ncc23)s1` [Example 213, N-[5-[(7-chloro-1H-indazol-4-yl)methoxy]-1,3,4-thiadiazol-2-yl]-4-(2-methoxyphenyl)-6-methylpyridine-3-carboxamide]: the IC50 was no more than 0.2 µM.

As to `COc1ccccc1-c1cc(C)ncc1C(=O)Nc1nnc(OCc2ccc(C3CC3)cn2)s1` [Example 214, N-(5-((5-cyclopropylpyridin-2-yl)methoxy)-1,3,4-thiadiazol-2-yl)-4-(2-methoxyphenyl)-6-methylnicotinamide], the IC50 was no more than 0.2 µM.

Turning to `COc1ccccc1-c1c(C(=O)Nc2nnc(OCc3ccc(Cl)cn3)s2)cnc(C)c1F` [Example 215, N-(5-((5-chloropyridin-2-yl)methoxy)-1,3,4-thiadiazol-2-yl)-5-fluoro-4-(2-methoxyphenyl)-6-methylnicotinamide], the IC50 was no more than 0.2 µM.

For `COc1ccccc1-c1cc(C2CC2)ncc1C(=O)Nc1nnc(OCc2ccc(Cl)cn2)s1` [Example 216, N-[5-[(5-chloropyridin-2-yl)methoxy]-1,3,4-thiadiazol-2-yl]-6-cyclopropyl-4-(2-methoxyphenyl)pyridine-3-carboxamide], the 50% inhibitory concentration (IC50) is no more than 0.2 µM.
